For data set [1] the following is noted: DTA.
Data set [2] can be described thus: Molar enthalpy of transition or fusion. The conditions noted are these: DSC.

± gives the expanded uncertainty stated by the source.

For `CCCCCCCCCCCCCCCCCCCCCCCCCCCC` [octacosane], the Triple point temperature in data set [1] (Crystal 1) amounted to 335.65 ± 2.5 K; in data set [1] (Crystal 2), 330.65 ± 2.5 K. Also, the results for the “Molar enthalpy of transition or fusion” value in data set [2] (Crystal 1) and in data set [2] (Crystal 2) were 15.3 ± 0.86 kcal/mol and 8.49 ± 0.478 kcal/mol, respectively.
As for `OC[C@@H](O)[C@@H](O)CO` [meso-1,2,3,4-butanetetrol], in data set [1] (Crystal), the Triple point temperature amounted to 390.15 ± 3 K. The “Molar enthalpy of transition or fusion” value in data set [2] (Crystal) was 9.54 ± 0.502 kcal/mol.
In the same order, the values of `CNC(N)=O` [methylurea] are 368.15 ± 5 K and 3.05 ± 0.177 kcal/mol.
For the molecule `O=C(O)CCCCCCCCC(=O)O` [1,10-decanedioic acid], in data set [1] (Crystal), the Triple point temperature was determined as 405.65 ± 2.5 K. For the same molecule, in data set [2] (Crystal), the “Molar enthalpy of transition or fusion” value worked out at 10.7 ± 0.574 kcal/mol.
Taken in the same sequence, the figures for `O=C(O)CCCC(=O)O` [1,5-pentanedioic acid] were 369.65 ± 2.5 K and 5.02 ± 0.287 kcal/mol.
Taken in the same sequence, the figures for `Oc1ccc(O)cc1` [1,4-benzenediol] were 445.65 ± 2.5 K and 5.68 ± 0.311 kcal/mol.
As to `OCCCCCCCCCCO` [1,10-decanediol], the Triple point temperature in data set [1] (Crystal) amounted to 344.65 ± 2.5 K. Moreover, the “Molar enthalpy of transition or fusion” value in data set [2] (Crystal) is 10.7 ± 0.574 kcal/mol.
